How the values were obtained:
[1] = test system: neuromuscular junctions of SMA mice; assay: NMJ staining, innervation of quadriceps and intercostal muscles; format: in vivo, mouse; settings: 40 mg/kg s.c. at PD0, quadriceps and intercostal muscles at PD30, 300–500 NMJs per group
Description: We assessed the NMJ architecture of the quadriceps and the intercostal muscles at PD30 to understand the phenotypic rescue following injections at PD0 (Figure 5A). […] Although there was no statistical significance, we observed upregulation of both atrogenes in the unconjugated PMO–treated mice and upregulation of only Atrogin-1 in MOE-treated mice in the quadriceps muscle at approximately PD30. […] We also evaluated the expressions of muscle specific kinase (MuSK) and acetylcholine receptor alpha (AChRα), which play a crucial role in NMJ formation and maintenance ([46]–[50]). […] The findings corroborate our hypothesis that DG9-PMO treatment rescues the crosstalk between the muscle and the neurons by improving muscle pathology and the characteristics of NMJs.
NMJ staining was carried out as previously described ([71]). Briefly, the quadriceps and the intercostal muscle were fixed in 4 % paraformaldehyde (PFA) for 2 hours. The muscles were washed quickly with PBS and blocked with 5% goat serum and 2 % Triton-X in PBS for 1 hour at RT. This was followed by overnight incubation at 4°C with the primary mouse monoclonal antibodies anti-neurofilament clone 2H3 (1:100) and […] (1:500) (DSHB). […] The synaptic area was quantified using ImageJ. […]

severe SMA mouse model = assay: Whole-body plethysmography, breathing function at PD7; format: in vivo; settings: for respiratory parameters under hypoxia (11% O2): 40 mg/kg s.c. at PD0, PD7
Description: The majority of patients with SMA suffer from compromised breathing functions and rely on an external source of breathing support. To evaluate the effects of DG9-PMO treatment on breathing function, we performed whole-body plethysmography recordings at PD7 under normoxic (21% O2) and hypoxic (11% O2) conditions (Figure 3A). […] The NT mice on the other hand had slow, irregular breathing denoted by a higher coefficient of variation of frequency (CV, a measure of relative variability) and marked apneas (absence of airflow/pressure changes for a period equivalent to or greater than 2 complete respiratory cycles) (Figure 3, B and F).
Measurements were performed in whole-body, cylindrical, transparent, plexiglass plethysmographs (Validyne Engineering) that had 1 inflow and 2 outflow ports for the continuous delivery of fresh room air and removal of expired carbon dioxide ([75], [76]). […] The gas was mixed with gas mixer (GSM-3, CWE), delivered from compressed pure oxygen and pure nitrogen cannisters, being monitored using 0–200 mL/min gas regulators (Porter Instrument Company). […] For PD30, the plethysmograph was recorded at RT of around 22°C. Pressure changes were detected with a pressure transducer (DP 103; Validyne) and signal conditioner (CD-15; Validyne), recorded with data acquisition software (Axoscope) via analog-digital board (Digidata 1322A). […] VT and fR were measured with blood pressure settings using Labchart 8 (ADInstruments). Threshold levels for bursts were set, and bursts were then automatically detected so that frequency (calculated from cycle duration) and VT (calculated from maximal pressure minus minimal pressure) values were interpreted. […]
Respiratory parameters were calculated over an average of 1 minute of continuous plethysmography recordings. […]

Compound	full innervation of peripheral synapses (NMJs) [1]	respiratory parameters under hypoxia (11% O2) (severe SMA mouse model)	respiratory phenotype under normoxic conditions (21% O2) (severe SMA mouse model; 40 mg/kg s.c. at PD0, PD7, majority of the mice)
CC(=O)N[C@@H](Cc1ccc(O)cc1)C(=O)N[C@@H](C)C(=O)N[C@H](CCCNC(=N)N)C(=O)N[C@H](C(=O)N[C@@H](CCCNC(=N)N)C(=O)N[C@@H](CCCNC(=N)N)C(=O)N[C@H](CCCNC(=N)N)C(=O)NCC(=O)N1CCC[C@H]1C(=O)N[C@@H](CCCNC(=N)N)C(=O)NCC(=O)N[C@@H](Cc1ccc(O)cc1)C(=O)N[C@@H](C)C(=O)N[C@H](CCCNC(=N)N)C(=O)N[C@H](C(=O)N[C@@H](CCCNC(=N)N)C(=O)N[C@@H](CCCNC(=N)N)C(=O)N[C@H](CCCNC(=N)N)C(=O)NCC(=O)N1CCC[C@H]1C(=O)N[C@@H](CCCNC(=N)N)C(=O)N[C@H](CCCNC(=N)N)C(=O)N1C[C@@H](COP(=O)(N(C)C)N2C[C@@H](COP(=O)(N(C)C)N3C[C@@H](COP(=O)(N(C)C)N4C[C@@H](COP(=O)(N(C)C)N5C[C@@H](COP(=O)(N(C)C)N6C[C@@H](COP(=O)(N(C)C)N7C[C@@H](COP(=O)(N(C)C)N8C[C@@H](COP(=O)(N(C)C)N9C[C@@H](COP(=O)(N(C)C)N%10C[C@@H](COP(=O)(N(C)C)N%11C[C@@H](COP(=O)(N(C)C)N%12C[C@@H](COP(=O)(N(C)C)N%13C[C@@H](COP(=O)(N(C)C)N%14C[C@@H](COP(=O)(N(C)C)N%15C[C@@H](COP(=O)(N(C)C)N%16C[C@@H](COP(=O)(N(C)C)N%17C[C@@H](COP(=O)(N(C)C)N%18C[C@@H](COP(=O)(N(C)C)N%19CCC(C(N)=O)CC%19)O[C@@H](n%19cc(C)c(=O)[nH]c%19=O)C%18)O[C@@H](n%18ccc(N)nc%18=O)C%17)O[C@@H](n%17cnc%18c(N)ncnc%18%17)C%16)O[C@@H](n%16ccc(N)nc%16=O)C%15)O[C@@H](n%15cc(C)c(=O)[nH]c%15=O)C%14)O[C@@H](n%14cc(C)c(=O)[nH]c%14=O)C%13)O[C@@H](n%13cc(C)c(=O)[nH]c%13=O)C%12)O[C@@H](n%12ccc(N)nc%12=O)C%11)O[C@@H](n%11cnc%12c(N)ncnc%12%11)C%10)O[C@@H](n%10cc(C)c(=O)[nH]c%10=O)C9)O[C@@H](n9cnc%10c(N)ncnc%109)C8)O[C@@H](n8cnc9c(N)ncnc98)C7)O[C@@H](n7cc(C)c(=O)[nH]c7=O)C6)O[C@@H](n6cnc7c(=O)[nH]c(N)nc76)C5)O[C@@H](n5ccc(N)nc5=O)C4)O[C@@H](n4cc(C)c(=O)[nH]c4=O)C3)O[C@@H](n3cnc4c(=O)[nH]c(N)nc43)C2)O[C@@H](n2cnc3c(=O)[nH]c(N)nc32)C1)C(C)C)C(C)C (some centres unmarked) [DG9-PMO]	more than 60%	increase in the respiratory parameters fR, VE, and VT relative to normoxia	did not exhibit any respiratory phenotype
unconjugated PMO: PMO targeting ISS-N1 intron 7 (5′ TCACTTTCATAATGCTGG 3′), purchased from Gene Tools LLC (all phosphorodiamidate morpholino (PMO)) [reference compound]	40%–50%	slow, weak, and irregular breathing when compared with the Hets	–

Reference: article PMC10077475, “DG9-conjugated morpholino rescues phenotype in SMA mice by reaching the CNS via a subcutaneous administration” (JCI Insight, 2023)
